Like-named read-outs stand apart in the source and are kept apart here.
How the values were obtained:
[1] = molecular target: T1, 5-Lipoxygenase (Rattus norvegicus, UniProt P12527); experiment: 5-lipoxygenase inhibition assay (20,000 xg supernatant of RBL cells); type: biochemical; design: activity contained in the 20,000 xg supernatant from cultured rat basophilic leukemia (RBL) cells; endogenous in cells; host or cells: RBL (rat basophilic leukemia) cells, 20,000 xg supernatant
T1 sequence (P12527 1-673): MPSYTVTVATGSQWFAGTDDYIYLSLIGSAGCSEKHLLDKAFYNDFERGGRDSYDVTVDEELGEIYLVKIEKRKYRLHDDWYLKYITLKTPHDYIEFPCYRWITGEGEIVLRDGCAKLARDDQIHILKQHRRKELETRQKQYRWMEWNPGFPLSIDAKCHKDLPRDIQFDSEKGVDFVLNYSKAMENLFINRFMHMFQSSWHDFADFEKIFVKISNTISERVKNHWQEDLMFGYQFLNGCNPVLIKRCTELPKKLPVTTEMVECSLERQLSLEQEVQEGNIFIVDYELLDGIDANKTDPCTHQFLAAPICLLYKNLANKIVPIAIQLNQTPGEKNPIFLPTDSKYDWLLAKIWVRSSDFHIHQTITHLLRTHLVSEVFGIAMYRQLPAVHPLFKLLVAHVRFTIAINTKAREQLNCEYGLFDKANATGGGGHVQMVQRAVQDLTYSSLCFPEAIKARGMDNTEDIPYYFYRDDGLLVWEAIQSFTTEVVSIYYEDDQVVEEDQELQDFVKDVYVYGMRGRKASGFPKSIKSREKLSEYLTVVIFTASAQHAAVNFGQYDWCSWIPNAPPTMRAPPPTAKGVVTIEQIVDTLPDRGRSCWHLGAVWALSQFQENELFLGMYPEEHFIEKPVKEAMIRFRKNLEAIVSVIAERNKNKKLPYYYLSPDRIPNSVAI
Protocol: PROTOCOL FOR 5-LIPOXYGENASE INHIBITION ASSAY
Incubations contained 5% (v/v) RBL 20,000 xg supernatant in assay buffer (10 mM BES, 10 mM PIPES, 1 mM EDTA, 0.75 mM CaC12, 1 mMATP, 100 mMNaCl, pH 6.8). DMSO vehicle (2% v/v) with and without inhibitors is preincubated with the enzyme for 20 minutes at 37° C. before initiating the 5-lipoxygenase catalyzed reaction by adding […] [^14 C]arachidonic acid (55.8 mCi/mmol, New England Nuclear, Boston, Mass.) dissolved in 5 μL 0,028% (v/v) aqueous NH4 OH. After 20 minutes of additional incubation at 37° C., reactions are terminated by the addition of three volumes of methanol containing 100 μg triphenylphosphine. Samples are then analyzed by HPLC with radiometric detection for 5-1ipoxygenase reaction products.
All treatments are evaluated in duplicate and percent inhibition is computed by comparing the products formed in treatment incubations to the mean product formation in the vehicle control group.

[2] = test system: Cyclooxygenase; experiment: ARBC: cyclooxygenase (PGF2α) in RBL-1 cells; type: cell-based, rat; settings: Table 4, class symbol
Protocol: (§1) The testing methods used are described as follows:
(§2) The rat basophilic leukemia cell line (RBL-1) was obtained from the American Type Culture Collection (Rockville, Md.).
(§3) Radioimmunoassay (RIA) kits of LTB4 and PGF2α were obtained from Arnersham (Arlington Heights, IL) and Seragen (Boston, Mass.), respectively.
(§4) All tissue culture media were obtained from GIBCO (Grand Island, N.Y.).
(§5) RBL-1 cells are grown in suspension culture in Eagle's minimum essential medium supplemented with 12% fetal bovine serum at 37° C. in an incubator supplied with air-5% carbon dioxide. Cells are harvested by centrifugation. They are washed with cold phosphate-buffered saline, pH 7.4 (PBS; NaCl, 7.1 g; Na2 HPO4, 1.15 g; KH2 PO4, 0.2 g; and KCl, 0.2 g/L). Cells are finally suspended in PBS containing 1.0 mM calcium at a density of 2×10^6 cells/mL. Cells are incubated with and without test agent (in DMSO) (1% DMSO is without effect on arachidonic acid metabolism) for 10 minutes at room temperature. Calcium ionophore A23187 (5 μM) is added and cells are incubated for 7 minutes at 37° C. The reaction is stopped by chilling the tubes on ice for 10 minutes. Cells are separated by centrifugation and the supernatant is stored at -20° C. Aliquots (100 μL) are analyzed for LTB4 and PGF2α using radioimmunoassay kits as provided by the supplier.

[3] = molecular target: T1, 5-Lipoxygenase; experiment: ARBL: 5-lipoxygenase (LTB4) in RBL-1 cells; type: cell-based; design: endogenous in cells; host or cells: RBL-1 (rat basophilic leukemia); settings: Table 4; for inhibition at 10 µM: RBL-1, class symbol; for IC50: ARBL/ARBC IC50 (μM) or % inhibition at 10 μM, RBL-1 cells, A23187
Protocol: as §1, §2, §3, §4, §5

[4] = test system: human neutrophil adhesion to TNFα, IL-1α, and LPS-stimulated human umbilical vein endothelial cells; experiment: Inhibition of human neutrophil adhesion to stimulated HUVEC (51Cr-labeled neutrophils); type: cell-based
Description: METHOD FOR DETERMINING THE INHIBITION OF HUMAN NEUTROPHIL ADHESION TO TNFα, IL-1α, AND LPS-STIMULATED HUMAN UMBILICAL VEIN ENDOTHELIAL CELLS BY 3-ALKYLOXY-, ARYLOXY-, OR ARYLALKYLOXY BENZO[b]THIOPHENE-2-CARBOXAMIDES
Neutrophils were isolated from anticoagulant-treated venous blood obtained from healthy human volunteers according to the method of Ferrante and Thong (J. Immunol. Methods 1978;24:389-93).
Second passage human umbilical vein endothelial cells (HUVEC) (Clonetics, San Diego, Calif.) were seeded into Falcon 24-well cell culture plates (Becton Dickinson, Lincoln Park, N.J.) at approximately 2×10^4 cells per well. The cells were grown to confluent monolayers in endothelial basal medium (EBM, Clonetics) supplemented with 5% fetal calf serum (Hyclone Laboratories, Logan, Utah), 10 ng/mL EGF, 1 μg/mL hydrocortisone, 0.4% bovine brain extract (Clonetics) in 5% CO2 at 37° C.
Neutrophils (30×10^6) were labeled for 60 minutes at 37° C. with 100 μCi Na^51 CrO4 (ICN Biomedicals, Costa Mesa, Calif.) in 2.0 mL Ca^2+ - and Mg^2+ -free Hanks' balanced salt solution (HBSS, GIBCO Laboratories, Grand Island, N.Y.). The cells were washed two times in HBSS and suspended in unsupplemented EBM.
Stimulation of HUVEC with tumor necrosis factor-α (TNFα) (Genzyme, Cambridge, Mass.) , interleukin (IL-1α) (Genzyrne) or E. coli 0111:B4 lipopolysaccharide (LPS) (Sigma) in the presence or absence of drug was initiated 4 hours prior to the addition of neutrophils. The suspension medium was unsupplemented EBM or supplemented EBM for studies with cytokines or LPS, respectively. […] Immediately prior to addition of ^51 Cr-labeled neutrophils to the HUVEC monolayers, the cultures were washed with 1 mL unsupplemented media to remove stimulus and/or drug. Neutrophils (5×10^5) were then added to the HUVEC in 0.5 mL unsupplemented media and incubated at 37° C. for 30 minutes. Nonadherent neutrophils were removed by aspiration. Following an additional wash, adherent neutrophils were lysed with 0.5 mL 1N NH4 OH overnight at 37° C. Lysates were collected and the radioactivity in each well was determined by gamma ray spectroscopy.

[5] = test system: mycobacterium footpad edema; experiment: Inhibition of mycobacterium footpad edema (MFE); type: in vivo, rat; settings: rats
Protocol: METHOD FOR DETERMINING THE INHIBITION OF MYCOBACTERIUM FOOTPAD EDEMA BY […]HOXY-3-([…]HYLETHOXY) BENZO[b]THIOPHENE-2-CARBOXAMIDE-1-OXIDE Mycobacterium butyricum (5 mg/mL) was prepared by sonication in paraffin oil for 10 minutes in an ice bath. Footpad edema was induced on Day 0 by injecting 0.1 mL of the Mycobacterium mixture into the left hindpaw of lightly anesthetized rats. Swelling in the injected hindpaw was determined by mercury plethysmography on Days 1, 2, and 3. Groups of rats were treated with test compounds (suspended in 0.5% hydroxypropyl methylcellulose with 0.2% Tween 80 or vehicle 1 hour before Mycobacterium injection and on Days 1 and 2. Inhibition of swelling is determined by comparing the change in hindpaw volume in compound- and vehicle-treated rats.

[6] = Table 4, class symbol, read-out: 5-LO % Inhibition at 30 μM
[7] = Table 4, read-out: 5-LO % Inhibition at 30 μM

Row | SMILES | inhibition at 30 µM [1, 6] [%] | inhibition at 10 µM [3] [%] | inhibition at 30 µM [1, 7] [%] | IC50 [3] [µM] | ARBC % Inhibition at 10 μM [2] | inhibition at 100 µM ([4]; Table 1, at 100 μM) [%] | other results
1 | COc1ccc2sc(C(N)=O)c(OC(C)C)c2c1 [Example 1, 5-methoxy-3-(1-methylethoxy)benzo[b]thiophene-2-carboxamide] |  |  | 13 | 36 |  |  | 
2 | COc1ccc2c(c1)c(OC(C)C)c(C(N)=O)[s+]2[O-] (stereo not shown) [Example 28, 5-Methoxy-3-(1-methylethoxy)benzo[b]thiophene-2-carboxamide-1-oxide] |  |  |  |  |  |  | ED40 ([5]; Mycobacterium, dosed 1 hour before injection and on Days 1 and 2, read-out: ID40 in mycobacterium footpad edema (MFE)): 10.9 mg/kg; activity in mycobacterium footpad edema (in words) [5]: active; inhibition at 100 µM ([4]; Table 3, at 100 μM): 83%
3 | COc1ccc2sc(C(=O)Nc3ccc(C(=O)O)cc3)c(OC(C)C)c2c1 [Example 12, 4-[[[5-Methoxy-3-(1-methylethoxy)benzo[b]thien-2-yl]carbonyl]amino]benzoic acid] |  |  | 16 | 36 |  |  | IC50 ([4]; Table 2, footnote b): 50 µM

Second part, led by results:

Row | inhibition at 30 µM [1, 6] [%] | inhibition at 10 µM [3] [%] | inhibition at 30 µM [1, 7] [%] | IC50 [3] [µM] | SMILES | ARBC % Inhibition at 10 μM [2] | inhibition at 100 µM ([4]; Table 1, at 100 μM) [%] | other results
4 | < 4 | < 40 |  |  | COc1ccc2sc(C(N)=O)c(Oc3ccccc3)c2c1 [Example 9, 5-Methoxy-3-(phenoxy)benzo[b]thiophene-2-carboxamide] | N (Less than 40% inhibition at 10 μM) | 59 | 
5 | < 4 | < 40 |  |  | CC(C)Oc1c(C(N)=O)sc2ccccc12 [Example 2, 3-(1-methylethoxy)benzo[b]thiophene-2-carboxamide] | N (Less than 40% inhibition at 10 μM) | 60 | 

From patent publication US5356926A, “3-alkyloxy-, aryloxy-, or arylalkyloxy-benzo [β]thiophene-2-carboxamides as inhibitors of cell adhesion” (Warner-Lambert Company, priority 1993, dated 1994)
